Assay results published in paper PMC3923439, “Anti-inflammatory properties of a novel peptide interleukin 1 receptor antagonist” (Journal of Neuroinflammation, 2014).
Positions of bridges follow the written chain, without caps; N, C: chain ends. Chains are numbered I, II in the order given. No end group written: not given here.

What was measured:
[1] = tested on: LPS-induced neuroinflammation; assay: Lipopolysaccharide-induced impairment of social behavior; format: in vivo; conditions: rat
Procedure: The peripheral administration of LPS, the active fragment of bacterial endotoxin, results in an increase in the plasma levels of all proinflammatory cytokines and behavioral depression. LPS-induced behavioral depression was assessed by measuring the reduction of the duration of social interaction during 4-minute sessions. Six- to seven-week-old rats were handled for five days, habituated to the test cages and the experiment room and trained for social interaction with three-week-old juvenile rats introduced into the test cage for four minutes two days before the actual experiment. On the day of the experiment, the rats were intraperitoneally injected (i.p.) with saline or LPS (Escherichia coli 0111:B4; Sigma-Aldrich) dissolved in saline (250 μg/kg). Immediately after the i.p. injection, Ilantide-t (Ila; 10 mg/kg, equivalent to 2.1 μmol/kg), Ana ([…], equivalent to 5.8 μmol/kg) or saline was injected subcutaneously. The volume of all of the injections was 1.0 ml/kg. Six experimental groups were used: vehicle i.p./vehicle s.c. (veh/veh; n = 10), vehicle i.p./Ilantide-t s.c. (veh/Ila; n = 8), vehicle i.p./Ana s.c. (veh/Ana; n = 9), LPS i.p./vehicle s.c. (LPS/veh; n = 10), LPS i.p./Ilantide-t s.c. (LPS/Ila; n = 11) and LPS i.p./Ana s.c. (LPS/Ana; n = 11). The injections and weighing of the rats were performed immediately after the first test session (0 h), and the animals were tested and weighed again 2, 4, 6, 8, and 24 hours later. Different juvenile animals were presented on each occasion. Social interaction consisted of anogenital sniffing, licking and chewing the fur of the juveniles by the experimental animals and was monitored with a video camera. […] The duration of social interaction at each time point is expressed as the percentage of baseline values and was averaged for each experimental group. Social interaction was scored by an observer who was blinded to the treatment of the animals. For evaluation of levels of pro- and anti-inflammatory cytokines in blood, rats were injected with LPS and then immediately with either vehicle (n = 8) or Ilantide-t (n = 8) as described above. In addition, a control group of animals (n = 4) was treated with Ilantide-t alone (control). Blood samples were collected at 0, 2 and 6 hours after injections as described for the pharmacokinetics study and stored at -20°C until use. The levels of IL-6, IFN-γ and IL-10 were determined using corresponding rat ELISA kits according to the manufacturer’s protocols (all from BD Biosciences, San Diego, CA, USA).

[2] = tested on: neonatal rat pancreatic islets; assay: IL-1β-induced nitric oxide production (nitrite, Griess reagent); format: cell-based; conditions: nitrites in supernatants of the apoptosis experiments, four independent experiments
Procedure: For cell death detection, rat islets were incubated with 150 pg/ml IL-1β (BD Pharmingen, San Diego, CA, USA) alone or in combination with various concentrations of Ana and Ilantide for 24 hours at 37°C in humidified atmospheric air. Rat islet cell death was assessed by cell death detection ELISA (Roche, Lund, Sweden) as previously described. As a surrogate measure of nitric oxide production, Griess reagent (1:1 aqueous mixture of 0.1% naphthylethylenediamine hydrochloride and 1% sulfanilamide + 5% H3PO4) was mixed in a 1:1 ratio with 100 μl of supernatant samples to determine the nitrite content in supernatants from the cell death assays described above.
Figure 8 Effect of Ilantide on interleukin 1β-induced nitric oxide production. Anakinra (A) but none of the peptides, Ilantide-m (B) or Ilantide-t (C), inhibited interleukin 1β (IL-1β)-induced nitric oxide production. The results of four independent experiments are shown. *P < 0.05 and **P < 0.01 compared with cultures treated with IL-1 alone (one-way analysis of variance followed by Dunnett’s post hoc test).

ectodomain of IL-1RI = target: T1, ectodomain of IL-1RI (Homo sapiens, UniProt P14778); assay: Surface plasmon resonance binding of immobilized ligand to recombinant IL-1RI ectodomain; conditions: SPR, Biacore 2000, ligand immobilized on CM4 chip, IL-1RI ectodomain injected, 25°C, pH 7.4
T1 construct: the recombinant ectodomain of IL-1RI (R&D Systems) was injected; purchased R&D Systems
T1 sequence (P14778 18-336 limits assumed): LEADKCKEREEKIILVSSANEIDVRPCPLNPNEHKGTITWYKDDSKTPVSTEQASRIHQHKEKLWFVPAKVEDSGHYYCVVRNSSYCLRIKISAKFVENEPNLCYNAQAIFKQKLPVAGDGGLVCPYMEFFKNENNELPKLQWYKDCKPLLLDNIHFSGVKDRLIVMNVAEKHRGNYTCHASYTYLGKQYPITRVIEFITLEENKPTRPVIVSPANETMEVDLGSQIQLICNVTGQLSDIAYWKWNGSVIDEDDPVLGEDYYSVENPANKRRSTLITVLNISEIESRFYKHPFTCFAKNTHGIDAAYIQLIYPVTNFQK
Procedure: The binding analysis was performed using a Biacore 2000 instrument (GE Healthcare Life Sciences) that contained 150 mM NaCl as running buffer at 25°C with 10 mM sodium phosphate (pH 7.4). The flow rate was 5 μl/min during immobilization. Ilantide peptide, IL-1β or IL-1Ra was immobilized on a CM4 sensor chip according to the manufacturer’s instructions, after which the recombinant ectodomain of IL-1RI (R&D Systems) was injected. The neural cell adhesion molecule (NCAM) immunoglobulin modules 1 and 2 (Ig1 and Ig2) were used as a negative control protein [9]. The data were analyzed using nonlinear curve-fitting with the manufacturer’s software.

Substance	IL-10 plasma levels ([1]; 2 hours after LPS administration, Ilantide-t 10 mg/kg s.c., ELISA, P < 0.01)	Plasma levels of proinflammatory cytokines (IL-6 and IFN-γ) ([1]; 6 hours following LPS injection, Ilantide-t 10 mg/kg s.c., ELISA, tendency toward reduction)	Effect on LPS-induced body weight decrease ([1]; 24 hours after LPS 250 μg/kg i.p., Ilantide-t 10 mg/kg, Ana 100 mg/kg s.c., P < 0.05)	Effect on LPS-induced depression of social activity (sickness behavior) ([1]; LPS 250 μg/kg i.p., Ilantide-t 10 mg/kg s.c., Ana 100 mg/kg s.c., 2 to 24 hours)	Inhibition of IL-1β-induced nitric oxide production [2]	k d (ectodomain of IL-1RI)
I: SGRKSSKMQAKK-NH2 / II: SGRKSSKMQAK / III: SGRKSSKMQA / IV: SGRKSSKMQA (amide I:11-IV:C, I:12-II:C, II:11-III:C; C-terminus assumed) [Ilantide-t]	increase in IL-10 plasma levels	not statistically significant	attenuated the anorexigenic effect of LPS	attenuated social depression	none	
IL-1Ra: recombinant interleukin 1 receptor antagonist purchased from R&D Systems						3.62 ± 0.65 × 10^-3 s^-1
